According to patent EP2601931A2, “Cosmetic use of 3-methyl-1-phenyl-5-pyrazolon” (Henkel AG&Co. KGAA, priority 2011, dated 2013):

What was measured:
[1] = tested on: CYP26A1; assay: RAMBA activity: change in CYP26A1 marker expression by qPCR in keratinocytes incubated with substance plus retinoic acid
Source text: Verschiedene kosmetische Wirkstoffe, die zur Stoffklasse der Azole gerechnet werden können, wurden auf eine mögliche RAMBA-Aktivität hin untersucht. Zu diesem Zweck wurden humane Keratinocyaten für 16 Stunden mit den entsprechenden Substanzen in Kombination mit Retinsäure inkubiert und anschließend mittels qPCR die Expressionsänderung des Markers CYP26A1 verfolgt. Das Enzym CYP26A1 bewirkt die Metabolisierung der Retinsäure und wird durch die Retinsäure selber induziert, wodurch eine Feedbak-Regulation der Retinsäurekonzentration in der Zelle ermöglicht wird. […] Tabelle 1

[2] = tested on: Kollagen-Neusynthese; assay: Collagen neosynthesis: P1NP secreted into the medium of a fibroblast / 3D epidermis model co-culture; assay type: cell-based; conditions: for P1NP: Co-Kultur-System, P1NP in medium, unbehandelt = 107
Source text: Ein in der Kosmetik relevanter Parameter für die Anti-Aging-Leistung eines Produktes ist die Induktion der Kollagen-Neusynthese. […] Zum Nachweis der Kollagen-Neusynthese wurde ein Co-Kultur-System verwendet, das aus einer zweidimensionalen Fibroblasten-Kultur besteht, auf die in einem Insert ein dreidimensionales Epidermismodell aufgesetzt wurde. Über das Nährmedium kann ein Stoffaustausch zwischen den Fibroblasten und den Keratinocyten des Epidermismodells erfolgen. […] Als Kontrollen für die Syntheseinduktion wurden Retinsäure und Retinol eingesetzt.

| Rel. Expression CYP26A1 ([1]; 0,01% in combination with Retinsäure (RA, 10nM), humane Keratinocyten, 16 Stunden, qPCR, ethanol control = 1,0) | SMILES | RAMBA-Aktivität ([1]; comparison with Ketokonazol, result in words on Tabelle 1) | Induktion von CYP26A1 ([1]; in combination with Retinsäure, result in words on Tabelle 1) | P1NP ([2]; 0,01%) | Induktion der Kollagensynthese ([2]; result in words on Tabelle 2) | P1NP ([2]; 5µM) | Rel. Expression CYP26A1 ([1]; keratinocytes, 16 h, 0.01 µM) |
| --- | --- | --- | --- | --- | --- | --- | --- |
| 1,3 | CC1=NN(c2ccccc2)C(=O)C1 [3-Methyl-1-phenyl-5-pyrazolon] | in etwa die gleiche RAMBA-Aktivität wie Ketokonazol | deutlich vermindert | 129 µg/mL | zeigen eine Induktion der Kollagensynthese |  |  |
|  | CC1=C(/C=C/C(C)=C/C=C/C(C)=C/CO)C(C)(C)CCC1 [Retinol, reference compound] |  |  |  |  | 146 µg/mL |  |
|  | CC1=C(/C=C/C(C)=C/C=C/C(C)=C/C(=O)O)C(C)(C)CCC1 [Retinsäure, reference compound] |  |  |  |  | 200 µg/mL | 37,6 |
